Assay results published in patent publication US7943770B2, “Fused quinoline derivative and use thereof” (Takeda Pharmaceutical Company Limited, priority 2004, dated 2011).

Target: T1, hNK2 receptor (Homo sapiens, UniProt P21452)
T1 construct: host or cells: CHO cells
T1 sequence (P21452 1-398): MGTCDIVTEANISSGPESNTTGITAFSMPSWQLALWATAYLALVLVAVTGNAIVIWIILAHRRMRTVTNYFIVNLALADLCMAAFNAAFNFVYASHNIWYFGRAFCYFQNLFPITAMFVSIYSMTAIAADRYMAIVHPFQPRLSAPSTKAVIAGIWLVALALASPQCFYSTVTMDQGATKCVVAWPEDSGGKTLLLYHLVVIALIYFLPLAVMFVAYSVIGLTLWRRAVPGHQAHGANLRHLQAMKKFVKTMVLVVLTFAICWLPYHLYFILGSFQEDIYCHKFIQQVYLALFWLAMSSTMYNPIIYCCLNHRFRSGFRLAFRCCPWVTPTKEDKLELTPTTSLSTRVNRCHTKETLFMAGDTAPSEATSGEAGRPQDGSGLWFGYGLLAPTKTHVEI
Experiment: Radio-ligand ([125I]-NKA) receptor binding inhibitory activity using membrane fraction of hNK2 receptor-expressing CHO cell
Conditions: membrane fraction of hNK2 receptor-expressing CHO cells, 25° C., 30 min
In short: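 Membranes from hNK2-expressing CHO cells (20 μg/mL suspension) incubated with test compound and [125I]-NKA ([…] solution as added) in Tris-HCl pH 7.4 with BSA, protease inhibitors, 3 mM MnCl2, 25 °C, 30 min. Bound radioactivity by GF/C filtration and scintillation; inhibition expressed relative to specific binding (total minus unlabeled-NKA non-specific).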

SMILES | IC50 [nM]
COc1ccc(CNC(=O)N[C@@H]2CCCC[C@@H]2C(=O)N2CC[C@@H]3[C@H](c4ccccc4)Nc4ccccc4[C@@H]32)cc1 [Example 144, N-(4-Methoxybenzyl)-N′-((1R,2S)-2-{[(3aR,4R,9bR)-4-phenyl-2,3,3a,4,5,9b-hexahydro-1H-pyrrolo[3,2-c]quinolin-1-yl]carbonyl}cyclohexyl)urea] | < 10
Cc1cccc(C(=O)N[C@@H]2CCCC[C@@H]2C(=O)N2CC[C@@H]3[C@H](c4ccccc4)Nc4ccccc4[C@@H]32)c1 [Example 98, 3-Methyl-N-((1R,2S)-2-{[(3aR,4R,9bR)-4-phenyl-2,3,3a,4,5,9b-hexahydro-1H-pyrrolo[3,2-c]quinolin-1-yl]carbonyl}cyclohexyl)benzamide] | < 1
COC[C@@H]1Nc2ccccc2[C@H]2[C@@H]1CCN2C(=O)[C@H]1CCCC[C@H]1NC(=O)c1ccc(-c2cnco2)cc1 [Example 290, N-((1R,2S)-2-{[(3aR,4R,9bR)-4-(Methoxymethyl)-2,3,3a,4,5,9b-hexahydro-1H-pyrrolo[3,2-c]quinolin-1-yl]carbonyl}cyclohexyl)-4-(1,3-oxazol-5-yl)benzamide] | < 1
N#Cc1ccc(C(=O)N[C@@H]2CCCC[C@@H]2C(=O)N2CC[C@@H]3[C@H](c4ccc[nH]4)Nc4ccccc4[C@@H]32)cc1 [Example 322, 4-Cyano-N-((1R,2S)-2-{[(3aR,4R,9bR)-4-(1H-pyrrol-2-yl)-2,3,3a,4,5,9b-hexahydro-1H-pyrrolo[3,2-c]quinolin-1-yl]carbonyl}cyclohexyl)benzamide] | < 1
O=C(N[C@@H]1CCCC[C@@H]1C(=O)N1CC[C@@H]2[C@H](c3ncc[nH]3)Nc3ccccc3[C@@H]21)c1ccc(C(F)(F)F)cc1 [Example 296, N-((1R,2S)-2-{[(3aR,4R,9bR)-4-(1H-Imidazol-2-yl)-2,3,3a,4,5,9b-hexahydro-1H-pyrrolo[3,2-c]quinolin-1-yl]carbonyl}cyclohexyl)-4-(trifluoromethyl)benzamide] | < 1
COC[C@@H]1Nc2ccccc2[C@H]2[C@@H]1CCN2C(=O)[C@H]1CCCC[C@H]1NC(=O)c1ccc(-n2cccn2)cc1 [Example 264, N-((1R,2S)-2-{[(3aR,4R,9bR)-4-(Methoxymethyl)-2,3,3a,4,5,9b-hexahydro-1H-pyrrolo[3,2-c]quinolin-1-yl]carbonyl}cyclohexyl)-4-(1H-pyrazol-1-yl)benzamide] | < 1
O=C(N[C@@H]1CCCC[C@@H]1C(=O)N1CC[C@H]2[C@@H](c3ncc[nH]3)Nc3ccccc3[C@H]21)c1ccccc1 [Example 321, N-((1R,2S)-2-{[(3aS,4S,9bS)-4-(1H-Imidazol-2-yl)-2,3,3a,4,5,9b-hexahydro-1H-pyrrolo[3,2-c]quinolin-1-yl]carbonyl}cyclohexyl)benzamide] | < 10
O=C(N[C@@H]1CCCC[C@@H]1C(=O)N1CC[C@@H]2[C@H](c3ccn[nH]3)Nc3ccccc3[C@@H]21)c1ccccc1 (relative stereo) [Example 56, N-((1R,2S)-2-{[(3aR*,4R*,9bR*)-4-(1H-Pyrazol-5-yl]-2,3,3a,4,5,9b-hexahydro-1H-pyrrolo[3,2-c]quinolin-1-yl]carbonyl}cyclohexyl)benzamide] | < 10
COC[C@@H]1Nc2ccccc2[C@H]2[C@@H]1CCN2C(=O)[C@H]1CCCC[C@H]1NC(=O)Nc1ccc(F)cc1 [Example 205, N-(4-Fluorophenyl)-N′-((1R,2S)-2-{[(3aR,4R,9bR)-4-(methoxymethyl)-2,3,3a,4,5,9b-hexahydro-1H-pyrrolo[3,2-c]quinolin-1-yl]carbonyl}cyclohexyl)urea] | < 1
Cc1occc1[C@@H]1Nc2ccccc2[C@H]2[C@@H]1CCN2C(=O)[C@H]1CCCC[C@H]1NC(=O)c1ccccc1 [Example 75, N-((1R,2S)-2-{[(3aR,4R,9bR)-4-(2-Methyl-3-furyl)-2,3,3a,4,5,9b-hexahydro-1H-pyrrolo[3,2-c]quinolin-1-yl]carbonyl}cyclohexyl)benzamide] | < 10
O=C(Nc1ccccc1)N[C@@H]1CCCC[C@@H]1C(=O)N1CC[C@@H]2[C@H](c3ncc[nH]3)Nc3ccccc3[C@@H]21 [Example 293, N-((1R,25)-2-{[(3aR,4R,9bR)-4-(1H-Imidazol-2-yl)-2,3,3a,4,5,9b-hexahydro-1H-pyrrolo[3,2-c]quinolin-1-yl]carbonyl}cyclohexyl)-N′-phenylurea] | < 1
O=C(N[C@@H]1CCCC[C@@H]1C(=O)N1CC[C@@H]2[C@H](c3ccccc3)Nc3ccccc3[C@@H]21)c1ccc2ccccc2c1 [Example 107, N-((1R,2S)-2-{[(3aR,4R,9bR)-4-Phenyl-2,3,3a,4,5,9b-hexahydro-1H-pyrrolo[3,2-c]quinolin-1-yl]carbonyl}cyclohexyl)-2-naphthamide] | < 1
CCC[C@@H]1Nc2ccccc2[C@H]2[C@@H]1CCN2C(=O)[C@H]1CCCC[C@H]1NC(=O)c1ccc(C#N)cc1 [Example 202, 4-Cyano-N-((1R,2S)-2-{[(3aR,4S,9bR)-4-propyl-2,3,3a,4,5,9b-hexahydro-1H-pyrrolo[3,2-c]quinolin-1-yl]carbonyl}cyclohexyl)benzamide] | < 1
COC[C@@H]1Nc2ccccc2[C@H]2[C@@H]1CCN2C(=O)[C@H]1CCCC[C@H]1NC(=O)c1ccc2nccnc2c1 [Example 246, N-((1R,2S)-2-{[(3aR,4R,9bR)-4-(Methoxymethyl)-2,3,3a,4,5,9b-hexahydro-1H-pyrrolo[3,2-c]quinolin-1-yl]carbonyl}cyclohexyl)quinoxaline-6-carboxamide] | < 10
CCC[C@@H]1Nc2ccccc2[C@H]2[C@@H]1CCN2C(=O)[C@H]1CCCC[C@H]1NC(=O)c1ccccc1 [Example 62, N-{(1R,2S)-2-[(3aR,4S,9bR)-(4-Propyl-2,3,3a,4,5,9b-hexahydro-1H-pyrrolo[3,2-c]quinolin-1-yl)carbonyl]cyclohexyl}benzamide] | < 1
O=C(N[C@@H]1CCCC[C@@H]1C(=O)N1CC[C@@H]2[C@H](c3cccnc3)Nc3ccccc3[C@@H]21)c1ccccc1 (relative stereo) [Example 20, N-((1R,2S)-2-{[(3aR*,4R*,9bR*)-4-Pyridin-3-yl-2,3,3a,4,5,9b-hexahydro-1H-pyrrolo[3,2-c]quinolin-1-yl]carbonyl}cyclohexyl)benzamide] | < 10
O=C(N[C@@H]1CCCC[C@@H]1C(=O)N1CC[C@@H]2[C@H](c3ccco3)Nc3ccccc3[C@@H]21)c1ccccc1 (relative stereo) [Example 15, N-((1R,2S)-2-{[(3aR*,4R*,9bR*)-4-(2-Furyl)-2,3,3a,4,5,9b-hexahydro-1H-pyrrolo[3,2-c]quinolin-1-yl]carbonyl}cyclohexyl)benzamide] | < 10
CCC[C@@H]1Nc2ccccc2[C@H]2[C@@H]1CCN2C(=O)[C@H]1CCCC[C@H]1NC(=O)c1ccccc1 (relative stereo) [Example 27, N-((1R,2S)-2-{[(3aR*,4S*,9bR*)-4-Propyl-2,3,3a,4,5,9b-hexahydro-1H-pyrrolo[3,2-c]quinolin-1-yl]carbonyl}cyclohexyl)benzamide] | < 10
CCC[C@@H]1Nc2ccccc2[C@H]2[C@@H]1CCN2C(=O)[C@H]1CCCC[C@H]1NC(=O)Nc1ccc(F)cc1 [Example 197, N-(4-Fluorophenyl)-N′-((1R,2S)-2-{[(3aR,4S,9bR)-4-propyl-2,3,3a,4,5,9b-hexahydro-1H-pyrrolo[3,2-c]quinolin-1-yl]carbonyl}cyclohexyl)urea] | < 1
COC[C@@H]1Nc2ccccc2[C@H]2[C@@H]1CCN2C(=O)[C@H]1CCCC[C@H]1NC(=O)Nc1ccc2c(c1)OCO2 [Example 208, N-1,3-Benzodioxol-5-yl-N′-((1R,2S)-2-{[(3aR,4R,9bR)-4-(methoxymethyl)-2,3,3a,4,5,9b-hexahydro-1H-pyrrolo[3,2-c]quinolin-1-yl]carbonyl}cyclohexyl)urea] | < 1
CNc1ccc(C(=O)N[C@@H]2CCCC[C@@H]2C(=O)N2CC[C@@H]3[C@H](COC)Nc4ccccc4[C@@H]32)cc1 [Example 239, N-((1R,2S)-2-{[(3aR,4R,9bR)-4-(Methoxymethyl)-2,3,3a,4,5,9b-hexahydro-1H-pyrrolo[3,2-c]quinolin-1-yl]carbonyl}cyclohexyl)-4-(methylamino)benzamide] | < 1
CC(C)[C@@H]1Nc2ccccc2[C@H]2[C@@H]1CCN2C(=O)[C@H]1CCCC[C@H]1NC(=O)c1ccccc1 (relative stereo) [Example 28, N-((1R,2S)-2-[(3aR*,4S*, 9bR*)-4-Isopropyl-2,3,3a,4,5,9b-hexahydro-1H-pyrrolo[3,2-c]quinolin-1-yl]carbonyl)cyclohexyl)benzamide] | < 10
COc1ccc(C(=O)N[C@@H]2CCCC[C@@H]2C(=O)N2CC[C@@H]3[C@H](c4ccccc4)Nc4ccccc4[C@@H]32)cc1 [Example 90, 4-Methoxy-N-((1R,2S)-2-{[(3aR,4R,9bR)-4-phenyl-2,3,3a,4,5,9b-hexahydro-1H-pyrrolo[3,2-c]quinolin-1-yl]carbonyl}cyclohexyl)benzamide] | < 1
CCOC(=O)CCNC(=O)N[C@@H]1CCCC[C@@H]1C(=O)N1CC[C@@H]2[C@H](c3ccccc3)Nc3ccccc3[C@@H]21 [Example 155, Ethyl N-{[((1R,2S)-2-{[(3aR,4R,9bR)-4-phenyl-2,3,3a,4,5,9b-hexahydro-1H-pyrrolo[3,2-c]quinolin-1-yl]carbonyl}cyclohexyl)amino]carbonyl}-beta-alaninate] | < 10
